In patent USRE49825E1, “Piperidinyl nociceptin receptor compounds” (Astraea Therapeutics, LLC, priority 2015, dated 2024):
Read-outs that look alike come from different tables or passages of the source.

Legend:
mu opioid receptor = mu opioid receptor (Homo sapiens, UniProt P35372); test: Radioligand binding assay, [3H]DAMGO, membranes of CHO cells transfected with human mu opioid receptor; conditions: CHO cell membranes, read-out: Receptor Binding Ki (nM) μ
kappa opioid receptor = kappa opioid receptor (Homo sapiens, UniProt P41145); test: Radioligand binding assay, [3H]U69593, membranes of CHO cells transfected with human kappa opioid receptor; conditions: CHO cell membranes, read-out: Receptor Binding Ki (nM) κ
kappa opioid receptor, sequence (P41145 whole entry): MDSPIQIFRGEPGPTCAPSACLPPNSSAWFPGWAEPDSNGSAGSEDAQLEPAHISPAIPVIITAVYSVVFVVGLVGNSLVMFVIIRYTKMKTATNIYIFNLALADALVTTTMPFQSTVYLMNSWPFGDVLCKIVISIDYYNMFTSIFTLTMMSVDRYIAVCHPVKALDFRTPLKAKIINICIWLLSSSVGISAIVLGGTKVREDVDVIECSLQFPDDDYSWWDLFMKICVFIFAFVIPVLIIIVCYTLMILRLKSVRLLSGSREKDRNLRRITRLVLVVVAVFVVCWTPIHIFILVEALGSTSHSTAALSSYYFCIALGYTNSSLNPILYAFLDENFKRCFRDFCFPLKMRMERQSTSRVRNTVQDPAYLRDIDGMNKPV

mu opioid receptor, sequence (P35372 whole entry): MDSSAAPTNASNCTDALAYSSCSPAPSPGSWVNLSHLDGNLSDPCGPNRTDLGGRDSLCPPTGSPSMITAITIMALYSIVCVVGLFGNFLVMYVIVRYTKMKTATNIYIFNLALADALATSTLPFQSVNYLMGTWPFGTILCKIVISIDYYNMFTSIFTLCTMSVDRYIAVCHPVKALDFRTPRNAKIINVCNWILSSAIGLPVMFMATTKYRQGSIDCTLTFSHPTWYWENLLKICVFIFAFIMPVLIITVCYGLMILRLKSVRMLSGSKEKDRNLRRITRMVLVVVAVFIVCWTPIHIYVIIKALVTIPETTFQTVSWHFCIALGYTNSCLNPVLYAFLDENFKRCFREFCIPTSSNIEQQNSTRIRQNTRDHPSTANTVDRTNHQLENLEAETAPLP

SMILES | Ki (mu opioid receptor; Compounds of Formula (II)) [nM] | Ki (kappa opioid receptor; Compounds of Formula (II)) [nM] | Ki (mu opioid receptor; Compounds of Formula (IV)) [nM] | Ki (kappa opioid receptor; Compounds of Formula (IV)) [nM]
CC(C)[C@H]1CC[C@@H](N2CCC(n3cc(CN4CCC(N)CC4)c4ccccc43)CC2)CC1 [Compound 69, 1-((1-(1-(cis-4-isopropylcyclohexyl)piperidin-4-yl)-1H-indol-3-yl)methyl)piperidin-4-amine] | 150 to 5000 | 150 to 5000 | – | –
CC(C)[C@H]1CC[C@@H](N2CCC(n3cc(CN4CCC(O)CC4)c4ccccc43)CC2)CC1 [Compound 68] | > 5000 | 150 to 5000 | – | –
CC(C)[C@H]1CC[C@@H](N2CCC(n3cc(CCN)c4ccccc43)CC2)CC1 [Compound 86, 2-(1-(1-(cis-4-isopropylcyclohexyl)piperidin-4-yl)-1H-indol-3-yl)ethan-1-amine] | 150 to 5000 | 150 to 5000 | – | –
CC(C)[C@H]1CC[C@@H](N2CCC(n3cc(CN4CC[C@@H](O)C4)c4ccccc43)CC2)CC1 [Compound 66, (R)-1-((1-(1-(cis-4-isopropylcyclohexyl)piperidin-4-yl)-1H-indol-3-yl)methyl)pyrrolin-3-ol] | 150 to 5000 | > 5000 | – | –
CCNCC(=O)NCc1cn(C2CCN([C@H]3CC[C@@H](C(C)C)CC3)CC2)c2ccccc12 [Compound 76] | 150 to 5000 | 150 to 5000 | – | –
CC(C)[C@H]1CC[C@@H](N2CCC(n3cc(CN4CC(O)C4)c4ccccc43)CC2)CC1 [Compound 67, 1-((1-(1-(cis-4-isopropylcyclohexyl)piperidin-4-yl)-1H-indol-3-yl)methyl)azetidin-3-ol] | > 5000 | > 5000 | – | –
CC(C)[C@H]1CC[C@@H](N2CCC(n3cc(CCCNC(N)=S)c4ccccc43)CC2)CC1 [Compound 96] | 150 to 5000 | 150 to 5000 | – | –
CC(C)[C@H]1CC[C@@H](N2CCC(n3cc(CNCCO)c4ccccc43)CC2)CC1 [Compound 70] | 150 to 5000 | 150 to 5000 | – | –
CC(C)[C@H]1CC[C@@H](N2CCC(n3ccc4ccccc43)CC2)CC1 [Compound 61, syn-1-(1-(4-isopropylcyclohexyl)piperidin-4-yl)-1H-indole] | 150 to 5000 | 150 to 5000 | – | –
CC(C)[C@H]1CC[C@@H](N2CCC(n3cc(CN(C)C)c4ccccc43)CC2)CC1 [Compound 84] | 150 to 5000 | – | – | –
CC(C)[C@H]1CC[C@@H](N2CCC3(CC2)C(=O)N(CC(N)=O)Cc2cc(-c4ccccc4)ccc23)CC1 [Compound 345, 2-(1′-(cis-4-isopropyl-cyclohexyl)-3-oxo-7-phenyl-1H-spiro [isoquinoline-4,4′-piperidin]-2(3H)-yl) acetamide] | – | – | 150 to 5000 | 150 to 5000
CC(C)[C@H]1CC[C@@H](N2CCC(n3cc(CNC(=O)C(N)CCCNC(=N)N)c4ccccc43)CC2)CC1 (stereo partly shown) [Compound 80] | 150 to 5000 | 150 to 5000 | – | –
CCOC(=O)NCCc1cn(C2CCN([C@H]3CC[C@@H](C(C)C)CC3)CC2)c2ccccc12 [Compound 94] | 150 to 5000 | > 5000 | – | –
